Each block holds one molecule with its values, some of them ahead of it.
Legend:
[1] = tested on: wt Chili RNA aptamer (RNA, aptamer) GGCUAGCUGGAGGGGCGCCAGUUCGCUGGUGGUUGGGUGCGGUCGGCUAGCC; test: fluorescence activation
[2] = tested on: wt Chili RNA aptamer (RNA, aptamer) GGCUAGCUGGAGGGGCGCCAGUUCGCUGGUGGUUGGGUGCGGUCGGCUAGCC; test: imino 1H NMR; details: K+ 50 mM, Mg2+ 1 mM; 25 mM KPi pH 7.4; 20 µM RNA, 20 µM dye
[3] = tested on: Chili G31A (RNA, aptamer) GGCUAGCUGGAGGGGCGCCAGUUCGCUGGUAGUUGGGUGCGGUCGGCUAGCC; test: fluorescence activation; details: K+ 125 mM, Mg2+ 5 mM; HEPES pH 7.5; inferred from absent fluorescence; 0.5 µM RNA and dye
[4] = tested on: Chili G35A (RNA, aptamer) GGCUAGCUGGAGGGGCGCCAGUUCGCUGGUGGUUAGGUGCGGUCGGCUAGCC; test: fluorescence activation; details: K+ 125 mM, Mg2+ 5 mM, HEPES pH 7.5
[5] = tested on: Chili C40U (RNA, aptamer) GGCUAGCUGGAGGGGCGCCAGUUCGCUGGUGGUUGGGUGUGGUCGGCUAGCC; test: fluorescence activation; details: K+ 125 mM, Mg2+ 5 mM; HEPES pH 7.5; I540 156.1 versus wt 200.2
[6] = tested on: Chili U38C (RNA, aptamer) GGCUAGCUGGAGGGGCGCCAGUUCGCUGGUGGUUGGGCGCGGUCGGCUAGCC; test: fluorescence activation; details: K+ 125 mM, Mg2+ 5 mM; HEPES pH 7.5; I540 129.3 versus wt 200.2
[7] = tested on: Chili G36A (RNA, aptamer) GGCUAGCUGGAGGGGCGCCAGUUCGCUGGUGGUUGAGUGCGGUCGGCUAGCC; test: fluorescence activation; details: K+ 125 mM, Mg2+ 5 mM, HEPES pH 7.5
[8] = tested on: Chili C16U (RNA, aptamer) GGCUAGCUGGAGGGGUGCCAGUUCGCUGGUGGUUGGGUGCGGUCGGCUAGCC; test: fluorescence activation; details: K+ 125 mM, Mg2+ 5 mM; HEPES pH 7.5; inferred from absent fluorescence; 0.5 µM RNA and dye
[9] = tested on: Chili U34C (RNA, aptamer) GGCUAGCUGGAGGGGCGCCAGUUCGCUGGUGGUCGGGUGCGGUCGGCUAGCC; test: fluorescence activation; details: K+ 125 mM, Mg2+ 5 mM; HEPES pH 7.5; I540 203.1 versus wt 200.2
[10] = tested on: Chili C44U (RNA, aptamer) GGCUAGCUGGAGGGGCGCCAGUUCGCUGGUGGUUGGGUGCGGUUGGCUAGCC; test: fluorescence activation; details: K+ 125 mM, Mg2+ 5 mM; HEPES pH 7.5; I540 122.6 versus wt 200.2
[11] = tested on: wt Chili RNA aptamer (RNA, aptamer) GGCUAGCUGGAGGGGCGCCAGUUCGCUGGUGGUUGGGUGCGGUCGGCUAGCC; test: isothermal titration calorimetry; details: K+ 125 mM, Mg2+ 5 mM; HEPES pH 7.5, 25 °C
[12] = tested on: Chili C16U/G31A (RNA, aptamer) GGCUAGCUGGAGGGGUGCCAGUUCGCUGGUAGUUGGGUGCGGUCGGCUAGCC; test: fluorescence activation; details: K+ 125 mM, Mg2+ 5 mM; HEPES pH 7.5; inferred from absent fluorescence; 0.5 µM RNA and dye
[13] = tested on: wt Chili RNA aptamer (RNA, aptamer) GGCUAGCUGGAGGGGCGCCAGUUCGCUGGUGGUUGGGUGCGGUCGGCUAGCC; test: fluorescence titration; details: K+ 125 mM, Mg2+ 5 mM, HEPES pH 7.5, incubated at 4 °C 16 h
[14] = tested on: wt Chili RNA aptamer (RNA, aptamer) GGCUAGCUGGAGGGGCGCCAGUUCGCUGGUGGUUGGGUGCGGUCGGCUAGCC; test: fluorescence competition; details: K+ 125 mM, Mg2+ 5 mM; 40 mM HEPES pH 7.5; competes with DMHBAI; up to 5 µM (tenfold excess)
[15] = tested on: wt Chili RNA aptamer (RNA, aptamer) GGCUAGCUGGAGGGGCGCCAGUUCGCUGGUGGUUGGGUGCGGUCGGCUAGCC; test: fluorescence activation kinetics; details: K+ 125 mM, Mg2+ 5 mM; 40 mM HEPES pH 7.5, 25 °C; 0.025 µM RNA
[16] = K+ 125 mM, Mg2+ 5 mM, 80 mM HEPES pH 7.5, 0.5 µM RNA, 0.5 µM dye
[17] = weaker fluorescence than parent Chili

- binding [2]: yes
SMILES: COc1cc(/C=C2N=C(/C=C/c3ccccc3)N(C)C\2=O)cc(OC)c1O

- binding [14]: no
SMILES: COc1ccc(N2C(=O)/C(=C/c3cc(OC)cc(OC)c3)N=C2C)cc1

- binding [1, 16]: yes
SMILES: COc1cc(/C=C2N=C(/C=C/c3c[nH]c4ccccc34)N(C)C\2=O)cc(OC)c1O

- binding [3]: no
- binding [4, 17]: yes
- kon [15]: 82000 M⁻¹ s⁻¹
- binding [7, 17]: yes
- binding [8]: no
- KD [11]: 24.1 ± 5.6 nM
- binding [12]: no
SMILES: COc1cc(/C=C2\N=C(C)N(c3ccc([N+](C)(C)C)cc3)C2=O)cc(OC)c1O

- binding [1, 16]: yes
SMILES: COc1cc(/C=C2\N=C(C)N(C)C2=O)cc(Br)c1O

- binding [1, 16]: yes
SMILES: COc1cc(/C=C2\N=C(C)N([C@H]3CC[C@H](C)CC3)C2=O)cc(OC)c1O

- binding [1, 16]: yes
SMILES: CCN1C(=O)/C(=C/c2cc(OC)c(O)c(OC)c2)N=C1C

- KD ([13]; Figure S6 legend instead prints 0.377±0.024 µM): 151 ± 21 nM
SMILES: COc1cc(/C=C2\N=C(C)N(c3ccc(C)cc3)C2=O)cc(OC)c1O

The remaining lines, values behind:

SMILES: COc1ccc(N2C(=O)/C(=C/c3ccc(O)c(OC)c3)N=C2C)cc1
- binding [1, 16]: yes

SMILES: CN1C(=Cc2cc[n+](C)c3ccccc23)Sc2ccccc21
- binding [1]: yes

SMILES: COc1cc(/C=C2\N=C(C)N(c3ccccc3)C2=O)cc(OC)c1O
- binding [1, 16]: yes

SMILES: COc1cc(/C=C2N=C(/C=C/c3ccccc3)N(c3ccc([N+](C)(C)C)cc3)C\2=O)cc(OC)c1O
- binding [1, 16]: yes

SMILES: COc1cc(/C=C2\N=C(C)N(C)C2=O)cc(OC)c1O
- binding [3]: no
- binding ([4]; I540 138.2 versus wt 200.2): yes
- binding [5]: yes
- binding [6]: yes
- binding ([7]; I540 192.9 versus wt 200.2): yes
- binding [8]: no
- binding [9]: yes
- binding [10]: yes
- KD [11]: 371 ± 55 nM
- binding [12]: no

SMILES: COc1cc(/C=C2N=C(/C=C/c3c[nH]c4ccccc34)N(c3ccc(C)cc3)C\2=O)cc(OC)c1O
- binding [1, 16]: yes

SMILES: COc1ccc(N2C(=O)/C(=C/c3cc(OC)c(O)c(OC)c3)N=C2C)cc1
- KD ([13]; dye 0.1 µM): 65 ± 7 nM

SMILES: COc1cc(/C=C2\N=C(C=NO)N(c3ccc([N+](C)(C)C)cc3)C2=O)cc(OC)c1O
- kon [15]: 65000 M⁻¹ s⁻¹

SMILES: COc1cc(/C=C2N=C(/C=C/c3ccncc3)N(C)C\2=O)cc(OC)c1O
- binding [2]: yes

SMILES: Cc1ccc2c(c1)sc(-c1ccc(N(C)C)cc1)[n+]2C
- binding [1]: yes

SMILES: COc1cc(/C=C2N=C(/C=C/c3c[nH]cn3)N(C)C\2=O)cc(OC)c1O
- binding [1, 16]: yes
